Reference: paper PMC9413491, “A Novel and Cross-Species Active Mammalian INDY (NaCT) Inhibitor Ameliorates Hepatic Steatosis in Mice with Diet-Induced Obesity” (Metabolites, 2022)

What was measured:
DIO mice [1] = test: 7-day treatment of diet-induced obesity (DIO) mice; format: in vivo, mouse; details: 15 mg/kg twice daily, 7 days, p < 0.001 pair-fed, p < 0.05 vehicle
DIO mice [2] = test: 28-day treatment of diet-induced obesity (DIO) mice; format: in vivo, mouse
Description: We performed in vivo testing in DIO mice (for 7- and 28-day treatment), an established model designed to study high-fat-diet-induced hepatic steatosis and associated cardiometabolic traits. We established DIO in four-week-old C57BL/6N male mice that were fed a high-fat diet (HFD, 60 kcal% fat, D12492; Research Diets, Inc.; New Brunswick, NJ, USA) until 11 weeks of age.
Mice were housed at a temperature of 22–24 °C, with a day/night cycle of 12/12 h (07:00-19:00–07:00) and had access to the appropriate diet and tap water ad libitum. Animals allocated to the pair-feeding group were fed the same amount of food as the corresponding treatment group had consumed the day before. Food was only withdrawn for overnight fasting on the penultimate study day before the section on the final day. We randomised groups of n = 12 for treatment and n = 8 for pair-feeding cage-wise according to random fed blood glucose levels and body weight before the study treatment was started. For all animals, the high-fat diet was started at the same age.
We treated DIO mice with the inhibitor or corresponding vehicle (5% DMSO/10% Cremophor® EL/85% water) twice a day at the same time by oral gavage according to their grouping (5, 15, and 50 mg/kg dose groups, and vehicle control groups). During the study, we measured body weight and blood glucose. We measured glucose concentrations in tail tip blood samples with the “Accu-Chek® Performa” glucometer (Roche, Basel, Switzerland, range <33.3 mmol/L). We determined random fed blood glucose and fasting blood glucose after overnight fasting.
An intraperitoneal glucose tolerance test was performed after an overnight fasting period. Mice were injected with 1g/kg glucose and blood glucose was measured over a period of 180 min.
At the end of study day 28, we obtained blood and liver samples. In anesthetised animals, we collected retro-orbital blood samples in non-coated tubes (Sarstedt, Inc., Nümbrecht, Germany). Then, we sacrificed animals by cervical dislocation. We dissected and weighed the livers and immediately froze liver samples in liquid nitrogen for further analysis.
For serum sample generation, we centrifuged blood at 4000× g for 10 min and dispensed serum samples into a 110 µL plus an additional aliquot. Samples were stored at −80 °C. For Piccolo® system (Abaxis, Inc., Union City, CA, USA) analysis (lipid panel including triglycerides and cholesterol), we used a 110 µL serum aliquot.
The frozen tissue from liver samples were used to determine the triglyceride content via triglyceride assay according to the manufacturer’s protocol (Sigma-Aldrich, Cat.No.TR0100) using glycerol as a standard (Sigma-Aldrich, Glycerol G7793, St. Louis, MO, USA).
We determined body composition in mice using the non-invasive Bruker Minispec Instrument MQ 10 NMR Analyser (Bruker, Billerica, MA, USA). We placed mice in a clear, plastic cylinder and kept them immobile by inserting a tight-fitting plunger into the cylinder. For scanning, the tube was placed in the sample chamber for approximately one minute. Body composition was calculated and related to whole body weight.
We isolated total RNA from individual liver samples from all animals in 1.5 mL Trizol reagent (Life Technologies, Carlsbad, CA, USA) at 4 °C according to the manufacturer’s instructions. Then, we purified total RNA utilising the RNeasy Mini Kit (Qiagen, Hilden, Germany) with DNase-treatment to completely remove genomic DNA according to the instructions of the manufacturer. Subsequently, RNA was reverse transcribed using Superscript II RnaseH Reverse Transcriptase (Life Technologies) and subjected to Taqman analysis using the Taqman Fast Advanced Master Mix (Applied Biosystems, Weiterstadt, Germany). The Mix contains AmpliTaq® Fast DNA Polymerase, AmpErase UNG, dNTPs with dUTP, passive reference Rox and optimised buffer components. Quantitative PCR was performed in the Quantstudio 7 Flex System (Applied Biosystems, Weiterstadt, Germany). […]

[3] = 15 mg/kg oral twice daily, 28 days
[4] = 15 mg/kg oral twice daily, 28 days, p < 0.001
[5] = 15 mg/kg oral twice daily, 28 days, p < 0.01
[6] = 15 mg/kg oral twice daily, 28 days, p < 0.05

O=C(Nc1cc(Cl)cc(C(F)(F)F)c1)OCCC(F)(F)F [ETG-5773]
Plasma β-hydroxybutyrate (β-HBA) concentrations vs pair-fed and vehicle (DIO mice [1]): significantly increased
Glucose excursion AUC (IPGTT) vs pair-fed control (DIO mice [2]; 15 mg/kg oral twice daily): not significant
Glucose tolerance (IPGTT) vs vehicle control and pair-fed group (DIO mice [2]; 15 mg/kg oral twice daily, 1 g/kg glucose i.p., all p < 0.05): significantly improved glucose tolerance
Plasma cholesterol concentrations (DIO mice [2]; [3]): no effect
Plasma triglyceride concentrations vs vehicle (DIO mice [2]; [3]): though not compared to the vehicle
Reduction in fasting insulin vs pair-fed (DIO mice [2]; 15 mg/kg oral twice daily, 28 days, non-significant p = 0.2): 70%
Reduction in body weight vs vehicle group (DIO mice [2]; 15 mg/kg oral twice daily, 28 days, p < 0.0001): 19%
Reduction in fasting blood glucose vs pair-fed (DIO mice [2]; [4]): 25%
Reduction in hepatic triglyceride content vs pair-fed (DIO mice [2]; [4]): 25%
Plasma triglyceride concentrations vs pair-fed (DIO mice [2]; [5]): slightly increased
Reduction in body weight vs pair-fed group (DIO mice [2]; [5]): 14%
Decrease in fasting blood glucose vs vehicle (DIO mice [2]; [6]): 17%
Reduction in fasting insulin vs vehicle (DIO mice [2]; [6]): 75%
Glucose excursion AUC (IPGTT) vs vehicle control (DIO mice [2]; 15 mg/kg oral twice daily, p < 0.05): significantly reduced
Hepatic Fasn mRNA vs pair-fed group (DIO mice [2]; 15 mg/kg twice daily, 28 days, p 0.09): trend for reduction
Hepatic Srebf1 mRNA vs vehicle control and pair-fed (DIO mice [2]; 15 mg/kg twice daily, 28 days, p < 0.0001): significantly downregulated
Hepatic Scd1 mRNA vs vehicle control and pair-fed (DIO mice [2]; 15 mg/kg twice daily, 28 days, p < 0.0001 vehicle, p < 0.001 pair-fed): significantly downregulated
Hepatic Acly mRNA vs vehicle control and pair-fed (DIO mice [2]; 15 mg/kg twice daily, 28 days, p < 0.001 vehicle, p < 0.01 pair-fed): significantly downregulated
Hepatic Fasn mRNA vs vehicle control (DIO mice [2]; 15 mg/kg twice daily, 28 days, p < 0.01): significantly downregulated
Hepatic Acc1 mRNA vs vehicle control (DIO mice [2]; 15 mg/kg twice daily, 28 days, p < 0.05): significantly downregulated
Hepatic Acc1 mRNA vs pair-fed group (DIO mice [2]; 15 mg/kg twice daily, 28 days, p < 0.1): trend for reduction
Body fat as percentage of body weight vs vehicle and pair-fed (DIO mice [2]; 15 mg/kg twice daily, day 22): significant decrease
Lean mass as percentage of body weight vs vehicle and pair-fed (DIO mice [2]; 15 mg/kg twice daily, day 22): significant increase
Fat mass (NMR) vs vehicle control and pair-fed group (DIO mice [2]; 15 mg/kg twice daily, day 22, p < 0.0001 vs vehicle, p < 0.01 vs pair-fed): markedly reduced
Lean mass (NMR) vs vehicle control (DIO mice [2]; 15 mg/kg twice daily, day 22, p < 0.01, not significant vs pair-fed): significantly lower
